Laboratory results taken from patent publication US20090004185A1, “AMINO-SUBSTITUTED QUINAZOLINE DERIVATIVES AS INHIBITORS OF BETA-CATENIN/TCF-4 PATHWAY AND CANCER TREATMENT AGENTS” (WYETH, priority 2007, published 2009).

Assays:
β-catenin/Tcf-4 = assay: cells; assay type: cell-based; settings: 24 hours of incubation with compound, ratio Firefly/Renilla luciferase
From the text: Background cell line: SW480 colorectal carcinoma DNA constructs:
1) Tcf-4-Luc: Tcf-4 binding sites driving Firefly Luciferase in the pGL3 vector—to measure the activity of β-catenin/Tcf-4;
(§1) 2) SV40-Luc: SV40 binding site driving Firefly Luciferase in the pGL3 vector—as a control for non-specific inhibitors; and
(§2) 3) SV40-R-Luc: SV40 binding site driving Renilla Luciferase in the pGL3 vector—as an internal control for cell number and toxicity.
This screen uses 3 cell lines derived from SW480 and selected to contain the above luciferase reporters integrated into their chromosomes as follows: […]
(§3) Cells: Tcf22C11 and SV5A8 were grown in the presence of 500 μg/ml G418 and Tcf 33.13 was grown in the presence of 500 μg/ml G418+125 μg/ml Zeocin to maintain the integrated reporters. The cells were trypsinized and plated at 1×10^4 cells/well in opaque 96 well plates.
The compounds were diluted as follows: The compounds were stored frozen in dimethyl sulfoxide (DMSO) at […]. Compounds were initially titrated in DMSO to make a 1000×DMSO stock solution. Compounds were then diluted 1:25 into media/DMSO (DMEM+10% FBS+9% DMSO). Using the Biomek Multimek, the diluted compounds were mixed well and immediately added to the plated cells in a 1:40 dilution. The final concentration of DMSO in the assay plates was 0.316% DMSO.
(§4) Assay Readout: The luciferase signal was detected using a luciferase detection kit from Promega. Until December 2003, Promega's Dual-Luciferase® Reporter (DLR™) Assay System was used to detect luciferase activity. Briefly, after 24 hours of incubation with compound, culture media was removed by aspiration and 20 ul of passive lysis buffer (Promega) per well was added. The plates were shaken for 15 min. Firefly substrate was then added and the resulting luminescence was immediately read on a CCD camera imaging device or a luminometer. After quantifying the firefly luminescence, the reaction was quenched, and the Renilla luciferase reaction was initiated simultaneously by adding Stop & Glo® Reagent to the same sample. Renilla luciferase was then quantified using the CCD camera or luminometer.
Promega's Dual-Glo™ Luciferase Assay System can be used for luciferase detection. […] Briefly, after 24 hours of incubation with compound, culture media was removed by aspiration and 75 ul of fresh medium was added. Add 75 ul of Dual-Glo Luciferase Reagent (Promega) to each well and mix by shaking for 10 minutes on a plate shaker. Then, measure the firefly luminescence on a CCD camera imaging device or a luminometer. After quantifying the firefly luminescence, add 75 ul of Dual-Glo Stop & Glo Reagent (Promega) to each well and mix for 10 minutes. Renilla luciferase was then quantified using the CCD camera or luminometer.
(§5) This assay was meant to confirm primary leads and determine IC50s. Compounds were tested at titrated dilutions. The raw data for this assay was reported in protocol 2463-B. Protocol 2463-C contains the IC50 calculations based on the raw data. The data calculations were done as follows:
(§6) The data was expressed as % of control for both Firefly and Renilla Luciferase. The ratio of FF/Renilla (F/R) was then calculated and averaged between duplicate plates. The data was then plotted using LSW Data Analysis in Microsoft Excel. IC50s were determined by plotting the data in the LSW Data Analysis program using model 33. The IC50s (nM) for all three cell lines were reported.

SV40-Luc = SV40-Luc control luciferase reporter assay, SV 5A8 cell line (SV40-Luc and SV40-R-Luc), control for non-specific inhibitors; assay type: cell-based, human; settings: SV 5A8 cells derived from SW480, 24 hours of incubation with compound, ratio Firefly/Renilla luciferase
From the text: Background cell line: SW480 colorectal carcinoma DNA constructs: […]
as §1, §2
This screen uses 3 cell lines derived from SW480 and selected to contain the above luciferase reporters integrated into their chromosomes as follows:
SV 5A8—SV40-Luc and SV40-R-Luc
as §3
Compounds: 20-24 hours after cell plating, compounds were added at titrated concentrations between […]. The compounds were diluted as follows: The compounds were stored frozen in dimethyl sulfoxide (DMSO) at […]. Compounds were initially titrated in DMSO to make a 1000×DMSO stock solution. Compounds were then diluted 1:25 into media/DMSO (DMEM+10% FBS+9% DMSO). Using the Biomek Multimek, the diluted compounds were mixed well and immediately added to the plated cells in a 1:40 dilution. The final concentration of DMSO in the assay plates was 0.316% DMSO.
as §4
Promega's Dual-Glo™ Luciferase Assay System can be used for luciferase detection. It was similar to the DLR Assay, however, unlike the DLR which has to be read immediately due to decaying signal, the signal in the Dual-Glo™ Luciferase Assay was stable for up to 2 hours. Briefly, after 24 hours of incubation with compound, culture media was removed by aspiration and 75 ul of fresh medium was added. Add 75 ul of Dual-Glo Luciferase Reagent (Promega) to each well and mix by shaking for 10 minutes on a plate shaker. Then, measure the firefly luminescence on a CCD camera imaging device or a luminometer. After quantifying the firefly luminescence, add 75 ul of Dual-Glo Stop & Glo Reagent (Promega) to each well and mix for 10 minutes. Renilla luciferase was then quantified using the CCD camera or luminometer.
as §5, §6

[1] = Homo sapiens, SW480, 24 h, Tcf 33.13 cells derived from SW480
[2] = Homo sapiens, Tcf22C11, 24 h, Tcf 22C11 cells derived from SW480
[3] = Tcf 22C11 cells derived from SW480
[4] = Tcf 33.13 cells derived from SW480

IC50 (β-catenin/Tcf-4; [1]) [nM] | IC50 (β-catenin/Tcf-4; [2]) [nM] | IC50 (SV40-Luc; Homo sapiens, SV5A8, 24 h) [nM] | SMILES | IC50 (β-catenin/Tcf-4; [3]) [nM] | IC50 (β-catenin/Tcf-4; [4]) [nM] | IC50 (SV40-Luc) [nM]
1300 | 2860 | > 4830 | CN(C)c1nc(NCc2ccc(NC(=O)c3ccc(F)cc3)cc2)c2ccc(CN)cc2n1 [Example 90, N-[4-({[7-(aminomethyl)-2-(dimethylamino)quinazolin-4-yl]amino}methyl)phenyl]-4-fluorobenzamide] |  |  | 
3950 | > 2340 | > 9360 | Cc1cccc2c(N[C@@H](C)c3ccc(NC(=O)c4ccc(Cl)nc4)cc3)nc(N(C)C)nc12 [Example 273, (S)-6-chloro-N-(4-(1-(2-(dimethylamino)-8-methylquinazolin-4-ylamino)ethyl)phenyl)nicotinamide] |  |  | 
> 6020 | 7510 | > 12000 | CNc1nc(NCc2ccc(NC(=O)c3ccc(F)c(C)c3)cc2)c2ccccc2n1 [Example 17, 4-fluoro-3-methyl-N-[4-({[2-(methylamino)quinazolin-4-yl]amino}methyl)phenyl]benzamide] |  |  | 
808 | 1110 | > 9780 | CC(C)c1ccc2c(NCc3ccc(NC(=O)c4ccc(Cl)nc4)cc3)nc(N(C)C)nc2c1 [Example 62, 6-chloro-N-[4-({[2-(dimethylamino)-7-isopropylquinazolin-4-yl]amino}methyl)phenyl]nicotinamide] |  |  | 
853 | 965 | > 8090 | Cc1ccc2c(NCc3ccc(NC(=O)C4CCN(Cc5ccccc5)CC4)cc3)nc(N3CCC(N4CCCC4)CC3)nc2c1 [Example 135, 1-benzyl-N-[4-({[7-methyl-2-(4-pyrrolidin-1-ylpiperidin-1-yl)quinazolin-4-yl]amino}methyl)phenyl]piperidine-4-carboxamide] |  |  | 
751 | 919 | > 5140 | CNc1nc(NCc2ccc(NC(=O)c3ccc(Cl)cc3)cc2)c2cc(C(F)(F)F)ccc2n1 [Example 167, 4-chloro-N-[4-({[2-(methylamino)-6-(trifluoromethyl)quinazolin-4-yl]amino}methyl)phenyl]benzamide] |  |  | 
> 22400 | > 22400 | > 22400 | O=C(O)CNc1nc(NCc2ccc(NC(=O)c3ccc(F)cc3)cc2)c2ccccc2n1 [Example 127, N-[4-({4-[(4-fluorobenzoyl)amino]benzyl}amino)quinazolin-2-yl]glycine] |  |  | 
336 | 414 | > 4780 | C/C=C/c1ccc2c(N[C@@H](C)c3ccc(NC(=O)c4ccc(Cl)nc4)cc3)nc(N(C)C)nc2c1 [Example 107, 6-chloro-N-{4-[(1S)-1-({2-(dimethylamino)-7-[(1E)-prop-1-en-1-yl]quinazolin-4-yl}amino)ethyl]phenyl}nicotinamide] |  |  | 
 |  |  | CN(C)c1nc(NCc2ccc(C(=O)Nc3ccc(F)cc3)cc2)c2cc(/C=C/C(C)(C)C)ccc2n1 [Example 176] | 556 | 425 | > 4680
825 | 1380 | > 5640 | CCN(C)c1nc(NCc2ccc(NC(=O)c3ccc(F)cc3)cc2)c2ccc(C)cc2n1 [Example 210, N-{4-[({2-[ethyl(methyl)amino]-7-methylquinazolin-4-yl}amino)methyl]phenyl}-4-fluorobenzamide] |  |  | 
453 | 229 | > 2330 | CN(C)c1ccc(-c2ccc3nc(N(C)C)nc(NCc4ccc(NC(=O)c5ccc(F)cc5)cc4)c3c2)cn1 [Example 59, N-{4-[({2-(dimethylamino)-6-[6-(dimethylamino)pyridin-3-yl]quinazolin-4-yl}amino)methyl]phenyl}-4-fluorobenzamide] |  |  | 
306 | 462 | > 2800 | Cc1ccc2nc(N(C)C)nc(NCc3ccc(NC(=O)c4ccc(Cl)cc4)cc3)c2c1 [Example 53, 4-chloro-N-[4-({[2-(dimethylamino)-6-methylquinazolin-4-yl]amino}methyl)phenyl]benzamide] |  |  | 
 |  |  | CNc1nc(NCc2ccc(NC(=O)C3CCN(Cc4ccc(F)cc4)CC3)cc2)c2cc(C(F)(F)F)ccc2n1 [Example 160] | 1450 | > 2210 | > 4410
1190 | 2150 | > 8720 | CC(C)c1ccc2c(NCc3ccc(NC(=O)C4CCN(Cc5ccccc5)CC4)cc3)nc(N(C)C)nc2c1 [Example 63, 1-benzyl-N-[4-({[2-(dimethylamino)-7-isopropylquinazolin-4-yl]amino}methyl)phenyl]piperidine-4-carboxamide] |  |  | 
1770 | 2000 | > 10100 | CN(C)c1nc(NCc2ccc(NC(=O)C3CCN(Cc4ccccc4)CC3)cc2)c2ccccc2n1 [Example 146, 1-benzyl-N-[4-({[2-(dimethylamino)quinazolin-4-yl]amino}methyl)phenyl]piperidine-4-carboxamide] |  |  | 
215 | 262 | > 8340 | Cc1ccc2c(NCc3ccc(NC(=O)C4CCN(Cc5ccc(F)cc5)CC4)cc3)nc(N(C)C)nc2c1 [Example 251, N-[4-({[2-(dimethylamino)-7-methylquinazolin-4-yl]amino}methyl)phenyl]-1-(4-fluorobenzyl)piperidine-4-carboxamide] |  |  | 
400 | 530 | > 4620 | CN(C)c1nc(NCc2ccc(NC(=O)c3ccc(F)cc3)cc2)c2cc(I)ccc2n1 [Example 68, N-[4-({[2-(dimethylamino)-6-iodoquinazolin-4-yl]amino}methyl)phenyl]-4-fluorobenzamide] |  |  | 
847 | 2260 | > 8230 | Cc1ccc2nc(N3CCCC3)nc(NCc3ccc(NC(=O)C4CCN(Cc5ccccc5)CC4)cc3)c2c1 [Example 77, 1-benzyl-N-(4-{[(6-methyl-2-pyrrolidin-1-ylquinazolin-4-yl)amino]methyl}phenyl)piperidine-4-carboxamide] |  |  | 
813 | 1030 | > 23400 | Cc1ccc2c(NCc3ccc(NC(=O)c4ccc(C)nc4)cc3)nc(N(C)C)nc2c1 [Example 241, N-[4-({[2-(dimethylamino)-7-methylquinazolin-4-yl]amino}methyl)phenyl]-6-methylnicotinamide] |  |  | 
> 22000 | > 22000 | > 22000 | Cc1ccc2nc(N3CCCC3)nc(NCc3ccc(NC(=O)c4ccc(F)cc4)cc3)c2c1 [Example 44, N-(4-((2-(1-azacyclopentyl)-6-methylquinazolin-4-ylamino)methyl)phenyl)-4-fluorobenzamide] |  |  | 
